We go through 1 compound from patent US20150252048A1, “SUBSTITUTED N-(3-PYRIMIDIN-4-YL)PHENYL)ACRYLAMIDE ANALOGS AS TYROSINE RECEPTOR KINASE BTK INHIBITORS” (UNIVERSITY OF UTAH RESEARCH FOUNDATION, priority 2012, published 2015).

pIC50: −log10 of the molar value. Where two headings read alike, the source gives them in different places. Bounds are passed on as bounds.

The target in one series is T1, Cytochrome P450 3A4 (Homo sapiens, UniProt P08684).
T1 construct: purchased Invitrogen
Briefly: Cytochrome P450 inhibition (P450 BACULOSOMES, Vivid substrates). It is filed as in vitro ADME. The method, then: (§1) A number of ADME properties were determined for a representative disclosed compound, compound 3 (N-(3-(6-((3-morpholinophenyl)amino)-1H-pyrazolo[3,4-d]pyrimidin-4-yl)phenyl)acrylamide), which corresponds to compound 3 in Table I. Drug inhibition of cytochrome P450 enzymes is a common cause of drug-drug intereaction issues in the clinic. The compound was tested in assays for commonly screened Cytochrome P450s, specifically the 1A2, 2C9, 2C19, 2D6, and 3A4 isoforms. The IC50 determinations were performed in duplicate using 10-point titrations of test compound using Invitrogen P450 BACULOSOMES® reagents and Vivid® CyP450 Screening substrates.

The target in the next series is T2, Cytochrome P450 2C9 (Homo sapiens, UniProt P11712).
T2 construct: purchased Invitrogen
T2 sequence (P11712 whole entry): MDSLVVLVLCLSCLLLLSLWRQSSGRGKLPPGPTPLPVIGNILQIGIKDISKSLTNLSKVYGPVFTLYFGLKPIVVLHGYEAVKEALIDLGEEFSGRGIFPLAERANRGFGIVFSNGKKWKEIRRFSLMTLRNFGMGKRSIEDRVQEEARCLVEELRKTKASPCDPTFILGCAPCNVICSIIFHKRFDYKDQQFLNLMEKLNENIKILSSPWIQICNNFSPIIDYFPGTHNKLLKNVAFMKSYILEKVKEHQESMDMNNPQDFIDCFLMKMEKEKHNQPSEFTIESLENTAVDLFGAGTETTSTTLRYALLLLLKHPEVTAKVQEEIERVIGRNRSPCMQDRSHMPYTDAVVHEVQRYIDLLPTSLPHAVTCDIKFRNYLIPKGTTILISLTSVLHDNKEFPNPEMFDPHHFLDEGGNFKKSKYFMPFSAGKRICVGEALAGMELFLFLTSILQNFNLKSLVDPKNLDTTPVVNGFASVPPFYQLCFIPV
Described as above. The format is in vitro ADME. Conditions: 10-point titration, duplicate; read-out: CYP Activity 2C9 IC50. Here is the method: as §1

The next series addresses T3, Cytochrome P450 2D6 (Homo sapiens, UniProt P10635).
T3 construct: purchased Invitrogen
Described as above. It is filed as in vitro ADME. Conditions: 10-point titration, duplicate; read-out: CYP Activity 2D6 IC50. The method, then:
as §1

The next series addresses T4, Cytochrome P450 2C19 (Homo sapiens, UniProt P33261).
T4 construct: purchased Invitrogen
The description is as above. The format is in vitro ADME. The conditions noted are these: 10-point titration, duplicate; read-out: CYP Activity 2C19 IC50. The method, then: as §1

The target of another series is T5, Cytochrome P450 1A2 (Homo sapiens, UniProt P05177).
T5 construct: purchased Invitrogen
T5 sequence (P05177 1-516): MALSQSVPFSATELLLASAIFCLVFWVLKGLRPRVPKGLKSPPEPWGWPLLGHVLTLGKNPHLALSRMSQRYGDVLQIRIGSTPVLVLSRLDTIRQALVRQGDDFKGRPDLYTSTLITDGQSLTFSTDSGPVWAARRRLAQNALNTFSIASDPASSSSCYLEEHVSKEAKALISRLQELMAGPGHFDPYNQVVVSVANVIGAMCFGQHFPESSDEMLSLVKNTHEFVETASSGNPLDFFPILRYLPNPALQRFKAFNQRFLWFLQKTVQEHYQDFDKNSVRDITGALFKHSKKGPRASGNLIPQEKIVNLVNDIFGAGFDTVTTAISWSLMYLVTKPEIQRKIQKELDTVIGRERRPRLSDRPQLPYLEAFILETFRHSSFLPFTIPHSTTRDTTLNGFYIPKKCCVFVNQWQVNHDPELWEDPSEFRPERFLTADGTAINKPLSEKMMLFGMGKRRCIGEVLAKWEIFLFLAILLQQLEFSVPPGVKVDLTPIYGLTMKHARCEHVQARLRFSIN
Described as above. The format is in vitro ADME. The conditions noted are these: 10-point titration, duplicate; read-out: CYP Activity 1A2 IC50. The method, then:
as §1

The test system of the next series is 451 kinase types. Briefly: KINOMEscan Assay Panel broad kinase screen. The conditions noted are these: screen against 451 kinase types. It is filed as binding, human. The method, then: The kinase selectivity of a representative disclosed compound, compound 3 (N-(3-(6-((3-morpholinophenyl)amino)-1H-pyrazolo[3,4-d]pyrimidin-4-yl)phenyl)acrylamide), which corresponds to compound 3 in Table I, was evaluated in multiple kinase assays. A broad based screen was conducted against 451 kinase types using the KINOMEscan Assay Panel. The results were able to map 14 interactions with an S-Score(35)=0.03. The interactions are highlighted in FIG. 4 (panels A and B), and are indicated by the dark circles in the figure.

The nature of the next series: Microsomal stability. The conditions noted are these: for Compound Remaining: rat microsomes 0.5 mg protein/mL, 1 μM. It is filed as in vitro ADME, rat. Here is the method: Data were also obtained for the stability of Compound 3 when incubated with a microsomal preparation. Drug metabolism can occur, at least in part, in cellular microsomes, and thus the assay assesses the stability of drug to metabolic modification. The concentration of compound 3 was 1 μM in the assay system and the indicated microsomes were present at 0.5 mg total protein per milliliter. The concentration of intact drug was determined at the indicated timepoints using a LC-MS/MS assay. The enzyme activity of the microsomes used in this study were assessed using a positive control, testosterone.

For the next series, the target named is T6, HERG channel (Homo sapiens, UniProt Q12809).
T6 construct: purchased Invitrogen; host or cells: membrane preparation with overexpressed HERG channels
T6 sequence (Q12809 whole entry): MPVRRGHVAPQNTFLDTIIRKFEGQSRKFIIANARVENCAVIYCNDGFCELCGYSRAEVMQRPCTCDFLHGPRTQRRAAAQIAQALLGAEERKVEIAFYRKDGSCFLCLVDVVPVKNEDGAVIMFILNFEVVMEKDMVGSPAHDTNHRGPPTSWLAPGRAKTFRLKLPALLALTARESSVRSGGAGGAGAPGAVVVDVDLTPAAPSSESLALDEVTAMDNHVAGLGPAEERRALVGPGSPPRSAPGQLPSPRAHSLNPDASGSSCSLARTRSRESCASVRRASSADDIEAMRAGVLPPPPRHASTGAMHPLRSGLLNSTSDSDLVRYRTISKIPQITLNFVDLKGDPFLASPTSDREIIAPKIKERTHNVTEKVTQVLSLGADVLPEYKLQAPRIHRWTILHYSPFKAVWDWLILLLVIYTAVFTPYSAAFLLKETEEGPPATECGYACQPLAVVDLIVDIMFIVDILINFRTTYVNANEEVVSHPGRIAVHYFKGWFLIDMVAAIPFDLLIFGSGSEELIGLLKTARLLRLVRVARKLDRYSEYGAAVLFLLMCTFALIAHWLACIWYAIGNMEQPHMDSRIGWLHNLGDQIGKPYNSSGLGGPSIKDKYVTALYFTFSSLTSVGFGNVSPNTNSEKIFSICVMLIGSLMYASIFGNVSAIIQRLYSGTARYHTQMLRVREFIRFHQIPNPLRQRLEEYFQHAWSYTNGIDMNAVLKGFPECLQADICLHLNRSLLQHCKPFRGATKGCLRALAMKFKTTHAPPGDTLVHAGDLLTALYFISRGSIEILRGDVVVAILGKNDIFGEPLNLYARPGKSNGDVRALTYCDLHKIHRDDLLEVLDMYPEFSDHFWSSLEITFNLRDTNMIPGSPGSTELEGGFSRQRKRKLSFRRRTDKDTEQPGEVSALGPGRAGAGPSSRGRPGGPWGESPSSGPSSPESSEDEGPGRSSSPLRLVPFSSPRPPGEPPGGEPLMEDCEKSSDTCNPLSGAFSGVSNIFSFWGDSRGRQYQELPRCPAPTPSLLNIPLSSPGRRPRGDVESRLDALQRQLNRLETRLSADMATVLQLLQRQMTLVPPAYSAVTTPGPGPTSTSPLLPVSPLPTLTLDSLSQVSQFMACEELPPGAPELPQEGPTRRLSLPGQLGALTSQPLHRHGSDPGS
Briefly: Predictor hERG Fluorescence Polarization Assay. The format is binding. The conditions noted are these: membrane preparation with overexpressed HERG channels, 10-point, duplicate. The method, then: The activity of a representative disclosed compound, compound 3 (N-(3-(6-((3-morpholinophenyl)amino)-1H-pyrazolo[3,4-d]pyrimidin-4-yl)phenyl)acrylamide), was evaluated in a HERG channel assay. Briefly, the compounds were assessed using the Invitrogen Predictor™ hERG Fluorescence Polarization Assay with excitation at 530 nm and emission at 580 nm using a membrane preparation with overexpressed HERG channels. The compound was tested in a 10-point dose response curves in duplicate and using E-4031 (N-[4-[[1-[2-(6-Methyl-2-pyridinyl)ethyl]-4-piperidinyl]carbonyl]phenyl]methanesulfonamide dihydrochloride), a known HERG channel inhibitor, as an assay positive control. The data are shown in FIG. 6, and the figure showns the average inhibition versus the compound.

T1 sequence (P08684 whole entry): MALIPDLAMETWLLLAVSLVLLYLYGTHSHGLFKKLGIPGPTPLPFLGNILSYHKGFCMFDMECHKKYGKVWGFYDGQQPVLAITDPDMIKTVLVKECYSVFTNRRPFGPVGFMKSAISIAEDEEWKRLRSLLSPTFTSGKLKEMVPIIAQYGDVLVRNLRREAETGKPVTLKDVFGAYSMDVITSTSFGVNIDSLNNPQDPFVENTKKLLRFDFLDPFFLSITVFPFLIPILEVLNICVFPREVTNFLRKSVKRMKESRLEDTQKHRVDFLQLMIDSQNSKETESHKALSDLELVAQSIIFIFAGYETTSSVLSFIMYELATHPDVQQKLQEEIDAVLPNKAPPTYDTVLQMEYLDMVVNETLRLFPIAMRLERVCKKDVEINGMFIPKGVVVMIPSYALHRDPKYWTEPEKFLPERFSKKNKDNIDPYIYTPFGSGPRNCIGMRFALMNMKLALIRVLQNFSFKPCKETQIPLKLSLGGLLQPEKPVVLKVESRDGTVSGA
T4 sequence (P33261 whole entry): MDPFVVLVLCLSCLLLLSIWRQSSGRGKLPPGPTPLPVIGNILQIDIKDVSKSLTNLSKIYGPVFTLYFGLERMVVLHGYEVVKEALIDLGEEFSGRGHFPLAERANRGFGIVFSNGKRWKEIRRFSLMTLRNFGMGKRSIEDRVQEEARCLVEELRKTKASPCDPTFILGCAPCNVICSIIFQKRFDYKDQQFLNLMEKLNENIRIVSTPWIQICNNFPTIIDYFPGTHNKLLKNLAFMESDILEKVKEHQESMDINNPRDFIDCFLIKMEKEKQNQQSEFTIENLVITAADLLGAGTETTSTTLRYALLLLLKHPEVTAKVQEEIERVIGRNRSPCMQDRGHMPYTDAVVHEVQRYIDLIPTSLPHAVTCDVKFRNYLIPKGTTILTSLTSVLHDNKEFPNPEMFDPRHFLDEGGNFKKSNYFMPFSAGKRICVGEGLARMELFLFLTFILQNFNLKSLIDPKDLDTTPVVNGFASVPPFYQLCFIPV
T3 sequence (P10635 whole entry): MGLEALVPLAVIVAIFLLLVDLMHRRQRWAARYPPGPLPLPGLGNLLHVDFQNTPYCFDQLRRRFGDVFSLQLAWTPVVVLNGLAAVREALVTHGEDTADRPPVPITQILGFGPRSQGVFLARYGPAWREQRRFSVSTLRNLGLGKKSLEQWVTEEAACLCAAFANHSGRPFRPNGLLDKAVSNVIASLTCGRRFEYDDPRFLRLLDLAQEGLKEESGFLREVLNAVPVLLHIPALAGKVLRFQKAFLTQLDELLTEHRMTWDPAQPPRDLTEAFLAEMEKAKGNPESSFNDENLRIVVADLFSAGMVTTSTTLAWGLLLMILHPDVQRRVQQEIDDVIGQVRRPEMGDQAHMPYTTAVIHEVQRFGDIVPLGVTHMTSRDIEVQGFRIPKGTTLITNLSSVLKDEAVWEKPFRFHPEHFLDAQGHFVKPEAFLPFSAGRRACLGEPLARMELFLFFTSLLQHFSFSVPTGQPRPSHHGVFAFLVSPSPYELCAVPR

In general, half-life refers to the time in which the quantity being followed falls by half. Consider `C=CC(=O)Nc1cccc(-c2nc(Nc3cccc(N4CCOCC4)c3)nc3[nH]ncc23)c1` [Compound 3, N-(3-(6-((3-morpholinophenyl)amino)-1H-pyrazolo[3,4-d]pyrimidin-4-yl)phenyl)acrylamide], for which the pIC50 at Cytochrome P450 3A4 (BOMCC substrate, read-out: CYP Activity 3A4/BOMCC IC50) was 6.17; on Cytochrome P450 3A4 (DBOMF substrate, read-out: CYP Activity 3A4/DBOMF IC50), 5.69; on Cytochrome P450 2C9, 5.66; at Cytochrome P450 2D6 it was at most 5.00; on Cytochrome P450 2C19, 5.58; on Cytochrome P450 1A2 it was at most 5.00. In addition, the pIC50 on HERG channel was below 5.00. The “Number of interactions mapped” value in the series with 451 kinase types worked out at 14. Also, the “S-Score(35)” value with 451 kinase types is listed as 0.03. The half-life at 1 μM in “Microsomal stability” (rat microsomes) worked out at 14 min. The “Compound Remaining” value is 100 % of initial amount in the series “Microsomal stability” (0 min); 55.2 % of initial amount in “Microsomal stability” (10 min); 33.6 % of initial amount in the series “Microsomal stability” (20 min); 20.5 % of initial amount in “Microsomal stability” (30 min); 5.13 % of initial amount in the series “Microsomal stability” (60 min). The microsomal CLint at 1 μM in “Microsomal stability” (rat microsomes, read-out: CLinit (intrinsic clearance)) worked out at 100 µL/min/mg.
